Blank lines part the entries; values can stand above or below the molecule they belong to.
Tests used:
Assay type in all cases: biochemical
mouse TAPL ΔTMD0 [1] = molecular target: T1, mouse TAPL ΔTMD0 (Mus musculus, UniProt Q9JJ59); test: Dithionite-based flip-flop (floppase) assay of NBD*-labeled lipids, ΔTMD0 proteoliposomes; details: NBD*-labeled lipid; PE, PG, PC and cholesterol data not shown
T1 construct: thrombin cleavage site (C); eGFP (C); 10XHis (C); made in house; host or cells: Trichoplusia ni High Five (Hi5) insect cells, baculovirus (pVL1393)
T1 sequence (Q9JJ59 143-762): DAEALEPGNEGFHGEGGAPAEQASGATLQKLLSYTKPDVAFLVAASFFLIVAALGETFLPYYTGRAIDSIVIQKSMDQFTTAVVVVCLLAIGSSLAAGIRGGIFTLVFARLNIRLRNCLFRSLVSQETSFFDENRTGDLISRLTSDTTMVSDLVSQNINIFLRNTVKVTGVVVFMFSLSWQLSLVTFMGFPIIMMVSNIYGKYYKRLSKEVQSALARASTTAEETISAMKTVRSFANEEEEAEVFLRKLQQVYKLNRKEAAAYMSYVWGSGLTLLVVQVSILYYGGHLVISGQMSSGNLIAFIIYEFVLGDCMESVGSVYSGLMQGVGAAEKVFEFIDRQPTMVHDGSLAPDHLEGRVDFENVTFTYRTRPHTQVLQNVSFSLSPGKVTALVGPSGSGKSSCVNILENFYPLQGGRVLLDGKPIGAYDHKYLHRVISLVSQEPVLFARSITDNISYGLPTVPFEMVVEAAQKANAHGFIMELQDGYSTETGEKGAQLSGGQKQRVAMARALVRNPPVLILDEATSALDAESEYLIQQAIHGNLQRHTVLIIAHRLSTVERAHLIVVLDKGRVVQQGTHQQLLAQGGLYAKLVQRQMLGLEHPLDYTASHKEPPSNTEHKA
Description: All lipids used in reconstitution were purchased from Avanti Polar Lipids, Inc. (purity > 99%). The in vitro flip–flop assay was performed using NBD* dye-labeled proteoliposomes as described previously. Briefly, E. coli polar lipids and egg PC were mixed in a 1:1 molar ratio, and 0.5% (mol/mol) NBD*-lipid was added. The lipid mixture was then dried under nitrogen gas. The NBD*-lipids used were 18:1-06:0 NBD*-PS (1-oleoyl-2-{6-[(7-nitro-2-1,3-benzoxadiazol-4-yl)amino]hexanoyl}-sn-glycero-3-phosphoserine), 18:1-06:0 NBD*-PC (1-oleoyl-2-{6-[(7-nitro-2-1,3-benzoxadiazol-4-yl)amino]hexanoyl}-sn-glycero-3-phosphocholine), 18:1-06:0 NBD*-PG (1-oleoyl-2-{6-[(7-nitro-2-1,3-benzoxadiazol-4-yl)amino]hexanoyl}-sn-glycero-3-[phospho-rac-(1-glycerol)]), 18:1-06:0 NBD*-PE (1-oleoyl-2-{6-[(7-nitro-2-1,3-benzoxadiazol-4-yl)amino]hexanoyl}-sn-glycero-3-phosphoethanolamine), and 25-NBD*-Cholesterol (25-[N-[(7-nitro-2-1,3-benzoxadiazol-4-yl)methyl]amino]−27-norcholesterol). Thin lipid films were solubilized in 20 mM HEPES–NaOH pH 8.0, 200 mM NaCl and 5% (v/v) glycerol, incubated at RT for 30 min and subjected to 5 freeze–thaw cycles. After extrusion with a Mini-Extruder at 65 °C, final lipid concentrations were determined by phosphorus assays. Briefly, 10 μL of extruded lipid was added to 10 μL of 2% (w/v) ammonium molybdate and 300 μL of concentrated perchloric acid. The mixture was heated at 250 °C for 30 min, then cooled to RT and mixed with 1.5 mL of 0.4% (w/v) ammonium molybdate and 250 μL of 9% (w/v) L-ascorbic acid. It was again heated at 100 °C for 6 min and cooled to RT. Lipid concentrations were calculated from the absorbance at 820 nm using a standard curve prepared with NaH2PO4 solution. After accurately determining the lipid concentration, DM-purified protein and 5 mM lipid suspension (solubilized in 5 mM DM) were mixed 1:25 (w/w). After incubation at 4 °C for 1.5 h, DM detergent was removed with 75 mg Bio-beads SM-2 by periodic gentle shaking for 1 h at 4 °C (Supplementary Fig. 5a). The beads were replaced once, followed by an additional incubation at 4 °C for 2 h to completely remove detergent. The resulting proteoliposomes were collected by ultracentrifugation at 200,000×g for 1.5 h at 4 °C.
To measure the flip–flop activity, 10 μL of 2 mM NBD*-labeled proteoliposomes were added to 100 μL of reaction buffer (20 mM HEPES–NaOH pH 8.0, 200 mM NaCl, 5 mM ATP and 5% (v/v) glycerol) in the presence of 2 mM MgCl2 (or NaCl), and incubated at 37 °C for 1 h. The mixture was transferred to a 96-well plate and time-dependent fluorescence (λex/λem = 460/538 nm) was recorded every 30 s for 26 min using a fluorescence spectrophotometer (Gemini XPS). After the baseline fluorescence had stabilized, 10 mM sodium dithionite was added to quench the fluorescence of NBD*-lipid present in the outer leaflets of the liposomes. The initial rapid drop and subsequent slow decline in fluorescence intensity were monitored. When a new steady state was established, 1% (v/v) Triton X-100 was added to completely disrupt the liposomes. The net percentage of NBD*-lipid translocated across the lipid bilayer was calculated from the following equation[72]: the percentage of protected NBD*-lipid in the inner leaflet = [(FD−F0)/(FT−F0)]×100, and that of accessible NBD*-lipid in the outer leaflet = [(FT−FD)/(FT−F0)]×100, where FT is the total fluorescence of the sample before the addition of dithionite, FD is the fluorescence of the sample after quenching with dithionite, and F0 is any residual fluorescence of the sample after solubilization with Triton X-100. Fluorescence values (FT, FD, F0) were calculated as the averages of 5 points on the respective plateau lines. The ΔTMD0-mediated lipid floppase activity was determined by subtracting the percentage of NBD*-lipid fluorescence measured in the presence of Na^+/ATP from that measured in the presence of Mg^2+/ATP.

mouse TAPL ΔTMD0 [2] = molecular target: T1, mouse TAPL ΔTMD0; test: NADH-coupled ATPase assay, DM-purified ΔTMD0; details: for ATP hydrolysis in presence of ATP analogs: in the presence of 9-mer peptide
Description: (§1) The ATPase activities of proteins obtained after various purification procedures were determined by NADH-coupled spectrophotometric assays. 10 μg of DM-purified or nanodisc-reconstituted protein was added to 140 μL of reaction buffer containing 50 mM HEPES–KOH pH 8.0, 60 μg/mL pyruvate kinase (Roche), 16 μg/mL lactate dehydrogenase (Roche), 10 mM phosphoenolpyruvate (Roche), 0.3 mM NADH, 3 mM ATP, 10 mM MgCl2, and 0.17% (w/v) DM in the presence or absence of 250 μM peptide. For proteins reconstituted into nanodiscs, DM was not added to the reaction buffer. For lipid-stimulated ATPase assays, the thin film of lipids was hydrated in 100 μL of buffer containing 50 mM HEPES–KOH pH 8.0 and 10 mM MgCl2 to yield a 10 mM solution. After sonication of the lipid solution for 10 min to decrease its turbidity, the reaction was initiated by adding varying concentrations of lipids to the mixture. ATP hydrolysis activity was monitored at 37 °C for 3 min by measuring the rate of decline of NADH absorbance at 340 nm. To inhibit ATP hydrolysis, the reaction mixture was incubated with 3 mM AMP-PNP or 8 mM NaF/2 mM BeSO4 for 5 min at RT. The kinetic parameters of ATP hydrolysis were calculated by fitting the initial rates of ATP hydrolysis to the Michaelis–Menten equation using PRISM 4.0 (GraphPad software).

mouse TAPL ΔTMD0 [3] = molecular target: T1, mouse TAPL ΔTMD0; test: Peptide transport assay, ΔTMD0 proteoliposomes; details: for reduction of peptide transport: 5-IAF-labeled peptide, ATP-dependent, relative to 9-mer; for Transport activity: peptide 10 mM (sic), + 3 mM ATP
Description: Proteoliposomes for peptide transport assays were prepared according to the protocol of Zhao et al., with some modifications. Briefly, E. coli polar lipid extract dissolved in chloroform was dried under a gentle stream of nitrogen. The thin film of lipids was placed under a desiccator overnight to completely remove residual chloroform and then hydrated in 1X PBS buffer pH 7.4 (137 mM NaCl, 2.7 mM KCl, 8 mM Na2HPO4, and 2 mM KH2PO4) with 10 mM MgCl2 and 5% (v/v) glycerol. After water bath sonication at 22 °C for 5 min (Powersonic 610, KLEENTEK), the lipid solution was extruded using a Mini-Extruder equipped with a polycarbonate membrane filter (200 nm pore) (Avanti Polar Lipids, Inc.) to obtain unilamellar vesicles, which were destabilized with 0.36% (w/v) DM. The DM-purified protein and lipid suspension were mixed in a 1:50 (w/w) ratio. After incubation at 4 °C for 2 h, the mixture was treated with Bio-Beads SM-2 resin (60 and 120 mg, see above) at 4 °C for a total of 18 h to remove detergent. The proteoliposomes were collected by centrifugation at 200,000×g for 1.5 h at 4 °C and resuspended in the buffer described above.
The peptide transport activity of ΔTMD0 was measured as described previously. Briefly, 50 μL of ΔTMD0-loaded proteoliposomes (~0.6 μg protein) were added into 200 μL reaction buffer containing 1X PBS pH 7.4, 3 mM ATP, and 10 mM MgCl2 in the presence or absence of 10 μM 5-IAF-labeled peptides. To investigate transport activity, the mixture was incubated at 37 °C for 10 min. The reaction was terminated by incubating the mixture for 20 min on ice. Proteoliposomes were collected by centrifugation at 200,000×g for 30 min and then washed twice with 1X PBS. The proteoliposomes were completely disrupted by adding 10% (w/v) SDS solution (final concentration, 2%). The transported peptide was measured using a microplate reader (Gemini XPS) with excitation at 485 nm and emission at 520 nm.

mouse TAPL ΔTMD0 [4] = molecular target: T1, mouse TAPL ΔTMD0; test: Lipid-stimulated ATPase assay, DM-purified ΔTMD0; details: lipid stimulation, 3 mM ATP
Description: as §1

[5] = 9-mer + ATP set at 100%, 37 °C 10 min, mean n=3

- ATP-dependent lipid transport by ΔTMD0 (mouse TAPL ΔTMD0 [1]): very low
Molecule: CCCCCCCC/C=C\CCCCCCCC(=O)OC[C@H](COP(=O)([O-])OCC[N+](C)(C)C)OC(=O)CCCCCNc1ccc([N+](=O)[O-])c2nonc12 [NBD*-PC, 1-oleoyl-2-{6-[(7-nitro-2-1,3-benzoxadiazol-4-yl)amino]hexanoyl}-sn-glycero-3-phosphocholine]

- Vmax (mouse TAPL ΔTMD0 [2]; basal ATPase activity, DM-purified ΔTMD0): 394 ± 10 nmol/mg/min
- Km (mouse TAPL ΔTMD0 [2]; basal ATPase activity, DM-purified ΔTMD0, read-out: Km for ATP): 497 ± 61 µM
Molecule: Nc1ncnc2c1ncn2[C@@H]1O[C@H](COP(=O)(O)OP(=O)(O)OP(=O)(O)O)[C@@H](O)[C@H]1O [ATP]

- ATP-dependent lipid transport by ΔTMD0 (mouse TAPL ΔTMD0 [1]): very low
Molecule: CCCCCCCC/C=C\CCCCCCCC(=O)OC[C@H](COP(=O)(O)OCCN)OC(=O)CCCCCNc1ccc([N+](=O)[O-])c2nonc12 [NBD*-PE, 1-oleoyl-2-{6-[(7-nitro-2-1,3-benzoxadiazol-4-yl)amino]hexanoyl}-sn-glycero-3-phosphoethanolamine]

- ATP-dependent lipid transport by ΔTMD0 (mouse TAPL ΔTMD0 [1]): very low
Molecule: CCCCCCCC/C=C\CCCCCCCC(=O)OC[C@H](COP(=O)(O)OCC(O)CO)OC(=O)CCCCCNc1ccc([N+](=O)[O-])c2nonc12 (mixture of isomers) [NBD*-PG, 1-oleoyl-2-{6-[(7-nitro-2-1,3-benzoxadiazol-4-yl)amino]hexanoyl}-sn-glycero-3-[phospho-rac-(1-glycerol)]]

- maximal ATPase activity (turnover) (mouse TAPL ΔTMD0 [4]): 88 min⁻¹
- maximal ATPase activity (Vmax) (mouse TAPL ΔTMD0 [4]; means ± SEM): 649 ± 35 nmol/mg/min
Molecule: CCCCCCCC/C=C\CCCCCCCC(=O)OC(COC(=O)CCCCCCCCCCCCCCC)COP(=O)([O-])OCC[N+](C)(C)C (centres unmarked) [POPC, 1-palmitoyl-2-oleoyl-glycero-3-phosphocholine]

- maximal ATPase activity (turnover) (mouse TAPL ΔTMD0 [4]): 155 min⁻¹
- Km (mouse TAPL ΔTMD0 [4]; means ± SEM): 105 ± 16 µM
- maximal ATPase activity (Vmax) (mouse TAPL ΔTMD0 [4]; means ± SEM): 1147 ± 41 nmol/mg/min
Molecule: CCCCCCCC/C=C\CCCCCCCC(=O)O[C@H](COC(=O)CCCCCCCCCCCCCCC)COP(=O)(O)OCC(O)CO (mixture of isomers) [POPG, 1-palmitoyl-2-oleoyl-sn-glycero-3-phospho-(1’-rac-glycerol)]

Second part, the molecule before the results:

Molecule: Nc1ncnc2c1ncn2[C@@H]1O[C@H](COP(=O)(O)OP(=O)(O)NP(=O)(O)O)[C@@H](O)[C@H]1O [AMP-PNP]
- ATP hydrolysis in presence of ATP analogs (mouse TAPL ΔTMD0 [2]): prevented ATP hydrolysis

Molecule: RRYQNSTELRRYQNSTC^5-IAFL [18-mer, 5-IAF-labeled 18-mer peptide]
- reduction of peptide transport (mouse TAPL ΔTMD0 [3]): 90%
- Transport activity (mouse TAPL ΔTMD0 [3]; [5]): 10.0006%
- Transport activity (mouse TAPL ΔTMD0 [3]; replicate I): 11.6836%
- Transport activity (mouse TAPL ΔTMD0 [3]; replicate II): 10.1438%
- Transport activity (mouse TAPL ΔTMD0 [3]; replicate III): 8.174%

Molecule: CC(CCC[C@@H](C)[C@@H]1CC[C@H]2[C@@H]3CC=C4C[C@@H](O)CC[C@]4(C)[C@H]3CC[C@@]21C)N(C)c1ccc([N+](=O)[O-])c2nonc12 (some centres unmarked) [NBD*-cholesterol, 25-[N-[(7-nitro-2-1,3-benzoxadiazol-4-yl)methyl]amino]−27-norcholesterol]
- ATP-dependent lipid transport by ΔTMD0 (mouse TAPL ΔTMD0 [1]): failed to detect ΔTMD0-mediated translocation

Molecule: RRYQNSTELRRYQNSTELNSTC^5-IAFL [23-mer, 5-IAF-labeled 23-mer peptide]
- reduction of peptide transport (mouse TAPL ΔTMD0 [3]): 80%
- Transport activity (mouse TAPL ΔTMD0 [3]; [5]): 20.2607%
- Transport activity (mouse TAPL ΔTMD0 [3]; replicate I): 20.4488%
- Transport activity (mouse TAPL ΔTMD0 [3]; replicate II): 15.9535%
- Transport activity (mouse TAPL ΔTMD0 [3]; replicate III): 24.3798%

Molecule: ADP·BeF3
- ATP hydrolysis in presence of ATP analogs (mouse TAPL ΔTMD0 [2]): prevented ATP hydrolysis

Source: article PMC9532399, “The lysosomal transporter TAPL has a dual role as peptide translocator and phosphatidylserine floppase” (Nature Communications, 2022)
